Laboratory results reported in paper PMC6979384, “Characterization of the plant homeodomain (PHD) reader family for their histone tail interactions” (Epigenetics & Chromatin, 2020).
Where no end group is shown, it is not given here.

Experiments:
[1] = system: 123 annotated human PHD-containing domains; assay: PHD finger domain microarray probed with biotinylated peptides (all domains); assay type: binding; settings: GST-PHD readers in duplicate on nitrocellulose slides, biotinylated peptide pre-labeled with streptavidin-Cy3
Description: To define the histone binding preferences of the PHD finger proteome, we expressed and purified 123 annotated human PHD-containing domains as GST-tagged recombinant fusions from E. coli. The recombinant proteins consisted of either PHD fingers in isolation, or as tandem domains if a given PHD finger was located adjacent to another reader domain (e.g., one or more PHD fingers, Tudor, chromo and/or bromodomains) (Additional file 1: Table S1). These GST fusions were printed in duplicate on nitrocellulose-coated microarray slides and probed with biotinylated peptides that represented the N-termini of H3, H4, H2A or H2B (Fig. 1a and Additional file 2: Figure S1). As the majority of PHD readers thus far characterized are H3K4me0/3 readers, we included additional peptides (H3K4 as either mono-, di-, or trimethylated) to further determine any H3K4 methyl preference (Additional file 2: Figure S2 and Fig. 1b). As a control, we also probed these microarrays with an α-Tubulin peptide (a.a. 30–50) that would not be predicted to interact with PHD fingers (Additional file 2: Figure S1). […] We also cannot exclude the possibility that some PHD fingers might not be functionally active on the microarrays (perhaps due to misfolding or the lack of an important adjacent region).
The protein domain microarray was designed to include 123 GST-tagged PHD-domain containing recombinant proteins. Protein domain microarray development and probing was as previously. Briefly, recombinant proteins were synthesized and cloned into pGEX-4T-1 vector by Biomatik Corporation. These GST-PHD readers were subsequently expressed, purified, and spotted in duplicate onto nitrocellulose-coated glass slides (Oncyte Avid slides, Grace Bio-Labs) using a pin arrayer (Aushon 2470, Aushon). For probing, microarray slides were blocked with 3% milk, 3% bovine serum albumin, 0.1% Tween 20 in PBS. Biotinylated peptides were pre-labeled with streptavidin-Cy3 fluorophore (GE Healthcare) and incubated with the blocked array slides. Slides were then washed with PBST and allowed to air dry. Fluorescent interactions were visualized using a GenePix 4200A Microarray Scanner (Molecular Devices).

[2] = dCypher AlphaScreen Phase A, optimal reader concentration range; assay type: binding; settings: 100 nM biotinylated peptide; 30 min + 60 min at 23 °C; AlphaLISA; n = 2
Method: Fig. 3 dCypher histone peptide-binding assays define the PTM recognition preference of PHD proteins with high sensitivity. a–h Binding curves to determine optimal reader protein concentration for full peptide library screening on the dCypher® AlphaScreen® platform (see “Methods”). X-axes are log(protein concentration (M)) at constant peptide concentration (100 nM); Y-axes are AlphaScreen counts, representing relative strength of binding (n = 2; error bars are S.D.). i Heat map represents relative binding to H3 N-terminal peptides (left) by PHD-containing GST-tagged proteins (top) using the dCypher AlphaScreen platform. Protein concentrations can be found in Additional file 5: Table S4. Binding strength is indicated by color gradient from green to yellow (stronger to weaker). The asterisk (*) by MLL5 signifies its general preference for H3K4 methylation. Alpha counts (n = 2) were normalized individually for each protein to the highest signal for each respective assay. For full dCypher peptide screen data, see Additional file 4: Table S3
We next employed a highly sensitive proximity-based AlphaScreen histone peptide assay (dCypher®) to provide a third and orthogonal approach to analyzing the histone binding preferences for a subset of the 31 PHD proteins with respect to various histone tail PTMs. In this assay, biotinylated peptides are bound to streptavidin “donor” beads and the GST-tagged reader domains bound to Glutathione “acceptor” beads. […] Initial binding assays were conducted for each fusion protein using three peptides [H3 (1–20) with K4me0, H3K4me3 or H3K9me3] to determine the optimal reader domain concentration for full peptide library studies (Fig. 3a–h; Additional file 4: Table S3 and Additional file 5: Table S4). […]
The dCypher peptide screen assay was performed as previously described. […] Plates were incubated at 23 °C in subdued lighting for 60 min and AlphaLISA signal measured on a PerkinElmer 2104 EnVision (680 nm laser excitation, 570 nm emission filter ± 50 nm bandwidth). […]

H3K4me0 readers = assay: dCypher AlphaScreen Phase B (full peptide screen), H3K4me0 readers together; assay type: binding, human; settings: 100 nM peptide, 23 °C, n = 2
Method: Fig. 3 dCypher histone peptide-binding assays define the PTM recognition preference of PHD proteins with high sensitivity. a–h Binding curves to determine optimal reader protein concentration for full peptide library screening on the dCypher® AlphaScreen® platform (see “Methods”). X-axes are log(protein concentration (M)) at constant peptide concentration (100 nM); Y-axes are AlphaScreen counts, representing relative strength of binding (n = 2; error bars are S.D.). i Heat map represents relative binding to H3 N-terminal peptides (left) by PHD-containing GST-tagged proteins (top) using the dCypher AlphaScreen platform. Protein concentrations can be found in Additional file 5: Table S4. […]
Once the optimal protein concentration ranges for each of the eight readers were determined, we conducted the full dCypher peptide screen (293 histone peptides) (Fig. 3i; Additional file 4: Table S3).
The dCypher peptide screen assay was performed as previously described. Briefly, 5 μL of GST-tagged reader domains (optimal protein concentration for library screening determined by initial binding curves to candidate peptides) were incubated with 5 μL of 400 nM (100 nM Final) biotinylated histone peptides (EpiCypher) for 30 min at 23 °C in 1× AlphaLISA Epigenetics buffer + epigenetics buffer supplement (PerkinElmer, AL1008) in a 384-well plate. […]

DIDO1 = assay: Histone peptide microarray; assay type: binding, human; settings: sheet "Array Heatmap"; GST-tagged reader; histone peptide array, total n = 4
In short: (§1)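 A peptide microarray holding 293 synthetic histone peptides with individual or combinatorial modifications was probed with each GST-PHD protein at 0.5 μM. Values represent mean intensity (±SD) from four replicates.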

CHD5 (PCC) = assay: Histone peptide microarray; assay type: binding, human; settings: sheet "Array Heatmap"; GST-tagged reader; histone peptide array, total n = 4
In short: as §1

CHD4 (PPCC) = assay: Histone peptide microarray; assay type: binding, human; settings: sheet "Array Heatmap"; GST-tagged reader; histone peptide array, total n = 4
In short: as §1

PHF23 = assay: Histone peptide microarray; assay type: binding, human; settings: sheet "Array Heatmap"; GST-tagged reader; histone peptide array, total n = 4
In short: as §1

SP140L = assay: Histone peptide microarray; assay type: binding, human; settings: sheet "Array Heatmap"; GST-tagged reader; histone peptide array, total n = 4
In short: as §1

PHF8 = assay: Histone peptide microarray; assay type: binding, human; settings: sheet "Array Heatmap"; GST-tagged reader; histone peptide array, total n = 4
In short: as §1

KDM4C (TTP) = assay: Histone peptide microarray; assay type: binding, human; settings: sheet "Array Heatmap"; GST-tagged reader; histone peptide array, total n = 4
In short: as §1

DPF2 (PPC2W2) = assay: Histone peptide microarray; assay type: binding, human; settings: sheet "Array Heatmap"; GST-tagged reader; histone peptide array, total n = 4
In short: as §1

PHF2 = assay: Histone peptide microarray; assay type: binding, human; settings: sheet "Array Heatmap"; GST-tagged reader; histone peptide array, total n = 4
In short: as §1

PHF13 = assay: Histone peptide microarray; assay type: binding, human; settings: sheet "Array Heatmap"; GST-tagged reader; histone peptide array, total n = 4
In short: as §1

PHF21A = assay: Histone peptide microarray; assay type: binding, human; settings: sheet "Array Heatmap"; GST-tagged reader; histone peptide array, total n = 4
In short: as §1

BPTF (PB) = assay: Histone peptide microarray; assay type: binding, human; settings: sheet "Array Heatmap"; GST-tagged reader; histone peptide array, total n = 4
In short: as §1

KDM7A = assay: Histone peptide microarray; assay type: binding, human; settings: sheet "Array Heatmap"; GST-tagged reader; histone peptide array, total n = 4
In short: as §1

KDM5B (3) = assay: Histone peptide microarray; assay type: binding, human; settings: sheet "Array Heatmap"; GST-tagged reader; histone peptide array, total n = 4
In short: as §1

ING1 = assay: Histone peptide microarray; assay type: binding, human; settings: sheet "Array Heatmap"; GST-tagged reader; histone peptide array, total n = 4
In short: as §1

BAZ2B = assay: Histone peptide microarray; assay type: binding, human; settings: sheet "Array Heatmap"; GST-tagged reader; histone peptide array, total n = 4
In short: as §1

KDM5B (1) = assay: Histone peptide microarray; assay type: binding, human; settings: sheet "Array Heatmap"; GST-tagged reader; histone peptide array, total n = 4
In short: as §1

AIRE (PP) = assay: Histone peptide microarray; assay type: binding, human; settings: sheet "Array Heatmap"; GST-tagged reader; histone peptide array, total n = 4
In short: as §1

PHRF1 (RP) = assay: Histone peptide microarray; assay type: binding, human; settings: sheet "Array Heatmap"; GST-tagged reader; histone peptide array, total n = 4
In short: as §1

TAF3 = assay: Histone peptide microarray; assay type: binding, human; settings: sheet "Array Heatmap"; GST-tagged reader; histone peptide array, total n = 4
In short: as §1

MORC3 (CW) = assay: Histone peptide microarray; assay type: binding, human; settings: sheet "Array Heatmap"; GST-tagged reader; histone peptide array, total n = 4
In short: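 Each reader, produced as a GST fusion and purified, was tested at 0.5 μM on synthetic histone peptides (293 in total) carrying single or combinatorial marks. Intensities averaged over four replicates.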

ING2 = assay: Histone peptide microarray; assay type: binding, human; settings: sheet "Array Heatmap"; GST-tagged reader; histone peptide array, total n = 4
In short: as §1

KDM5A (3) = assay: Histone peptide microarray; assay type: binding, human; settings: sheet "Array Heatmap"; GST-tagged reader; histone peptide array, total n = 4
In short: as §1

ING5 = assay: Histone peptide microarray; assay type: binding, human; settings: sheet "Array Heatmap"; GST-tagged reader; histone peptide array, total n = 4
In short: as §1

MLL5 = assay: Histone peptide microarray; assay type: binding, human; settings: sheet "Array Heatmap"; GST-tagged reader; histone peptide array, total n = 4
In short: as §1

ING4 = assay: Histone peptide microarray; assay type: binding, human; settings: sheet "Array Heatmap"; GST-tagged reader; histone peptide array, total n = 4
In short: as §1

TRIM66 (PB) = assay: Histone peptide microarray; assay type: binding, human; settings: sheet "Array Heatmap"; GST-tagged reader; histone peptide array, total n = 4
In short: as §1

RAG2 = assay: Histone peptide microarray; assay type: binding, human; settings: sheet "Array Heatmap"; GST-tagged reader; histone peptide array, total n = 4
In short: as §1

KDM5A (1) = assay: Histone peptide microarray; assay type: binding, human; settings: sheet "Array Heatmap"; GST-tagged reader; histone peptide array, total n = 4
In short: as §1

ING3 = assay: Histone peptide microarray; assay type: binding, human; settings: sheet "Array Heatmap"; GST-tagged reader; histone peptide array, total n = 4
In short: as §1

CHD5 (PPCC) = assay: Histone peptide microarray; assay type: binding, human; settings: sheet "Array Heatmap"; GST-tagged reader; histone peptide array, total n = 4
In short: as §1

Substance: Ac-H2A (1-17): histone peptide (Ac-SGRGKQGGKARAKAKTR; UniProt P0C0S8 2-18, looked up, fragment)
- binding on domain microarray [1]: No detectable binding observed

Substance: Ac-H4 (1-16): histone peptide (SGRGKGGKGLGKGGAK; N-terminal acetylation; UniProt P62805 2-17, looked up, fragment)
- binding on domain microarray [1]: No detectable binding observed

Substance: DIDO1: GST-tagged PHD, 250-340
- Phase A Optimal Range (reader concentration) [2]: 0.015 to 0.5 nM

Substance: H2B: biotinylated N-terminal H2B peptide (Figure S1: H2B (1-24)) [Peptide H2B]
- binding on domain microarray [1]: little to no positive interactions

Substance: H3K9me3 + S10p: H3 1-20
- loss of binding on S10 phosphorylation (H3K4me0 readers): four out of five of the H3K4me0 readers lose binding capacity
- Array Heatmap signal, DIDO1 (DIDO1): 0.5964
- Array Heatmap signal, CHD5 (PCC) (CHD5 (PCC)): 0.7991
- Array Heatmap signal, CHD4 (PPCC) (CHD4 (PPCC)): 0.5281
- Array Heatmap signal, PHF23 (PHF23): 0.4606
- Array Heatmap signal, SP140L (SP140L): 0.319
- Array Heatmap signal, PHF8 (PHF8): 0.3127
- Array Heatmap signal, KDM4C (TTP) (KDM4C (TTP)): 0.4574
- Array Heatmap signal, DPF2 (PPC2W2) (DPF2 (PPC2W2)): 0.6544
- Array Heatmap signal, PHF2 (PHF2): 0.4043
- Array Heatmap signal, PHF13 (PHF13): 0.5317
- Array Heatmap signal, PHF21A (PHF21A): 0.4454
- Array Heatmap signal, BPTF (PB) (BPTF (PB)): 0.3029
- Array Heatmap signal, KDM7A (KDM7A): 0.3788
- Array Heatmap signal, KDM5B (3) (KDM5B (3)): 0.4113
- Array Heatmap signal, ING1 (ING1): 0.4648
- Array Heatmap signal, BAZ2B (BAZ2B): 0.4277
- Array Heatmap signal, KDM5B (1) (KDM5B (1)): 0.7016
- Array Heatmap signal, AIRE (PP) (AIRE (PP)): 0.5449
- Array Heatmap signal, PHRF1 (RP) (PHRF1 (RP)): 0.515
- Array Heatmap signal, TAF3 (TAF3): 0.2418
- Array Heatmap signal, MORC3 (CW) (MORC3 (CW)): 0.3534
- Array Heatmap signal, ING2 (ING2): 0.5763
- Array Heatmap signal, KDM5A (3) (KDM5A (3)): 0.3848
- Array Heatmap signal, ING5 (ING5): 0.3112
- Array Heatmap signal, MLL5 (MLL5): 0.5167
- Array Heatmap signal, ING4 (ING4): 0.3907
- Array Heatmap signal, TRIM66 (PB) (TRIM66 (PB)): 0.578
- Array Heatmap signal, RAG2 (RAG2): 0.2135
- Array Heatmap signal, KDM5A (1) (KDM5A (1)): 0.4357
- Array Heatmap signal, ING3 (ING3): 0.3956
- Array Heatmap signal, CHD5 (PPCC) (CHD5 (PPCC)): 0.486

Substance: H4: biotinylated N-terminal H4 peptide (Figure S1: Ac-H4 (1-16)) (SGRGKGGKGLGKGGAK; biotin, N-terminal acetyl; UniProt P62805 2-17, looked up, fragment) [Peptide H4]
- binding on domain microarray [1]: little to no positive interactions

Substance: KDM7A: GST-tagged PHD, 1-100
- Phase A Optimal Range (reader concentration) [2]: 0.05 to 1 nM

Substance: MLL5: GST-tagged PHD, 100-180
- Phase A Optimal Range (reader concentration) [2]: 0.015 to 0.05 nM

Substance: α-Tubulin (30-50): α-Tubulin peptide (a.a. 30–50), control (IQPDGQMPSDKTIGGGDDSFN; also: biotin (end not given here))
- binding on domain microarray [1]: No detectable binding observed
- binding on domain microarray ([1]; listed as tubulin): little to no positive interactions
